Assay results from patent US20080050452A1, “METAL-CONTAINING FORMULATIONS AND METHODS OF USE” (priority 2006, published 2008).

Tests used:
B dolosa = experiment: Minimal bactericidal concentration (MBC) assay; assay type: cell-based, Burkholderia dolosa
Experimental: (§1) Minimal bactericidal concentration (MBC) assay—Overnight-grown MIC plates, prepared as described in Example 16, were evaluated to determine the MIC. Culture was then sampled from wells at and near the MIC using sterile inoculating loops, and transferred to fresh MHA plates to determine if viable bacteria remained. […] The MBC was determined as the well in the MIC plate which contained the lowest concentration of silver yielding no bacterial growth on the MHA plate.

Citrobacter freundii = experiment: MIC assay; assay type: cell-based; conditions: C. freundii isolate NP410
Pseudomonas aeruginosa = experiment: MIC assay; assay type: cell-based; conditions: for NP212 MIC: P. aeruginosa isolate NP212; for NP213 MIC: P. aeruginosa isolate NP213; for NP214 MIC: P. aeruginosa isolate NP 214
Enterobacter cloacae = experiment: MIC assay; assay type: cell-based; conditions: Enterobacter cloacae
Staph epidermidis = experiment: Minimal bactericidal concentration (MBC) assay; assay type: cell-based, Staphylococcus epidermidis
Experimental: as §1

Proteus mirabilis = experiment: MIC assay; assay type: cell-based; conditions: Prot. mirabilis isolate NP405
Prot. mirabilis = experiment: Minimal bactericidal concentration (MBC) assay; assay type: cell-based, Proteus mirabilis; conditions: Prot. mirabilis isolate NP405
Experimental: as §1

K. pneumoniae = experiment: Minimal bactericidal concentration (MBC) assay; assay type: cell-based, Klebsiella pneumoniae
Experimental: as §1

Staph. aureus = experiment: Minimal bactericidal concentration (MBC) assay; assay type: cell-based, Staphylococcus aureus
Experimental: as §1

Ser. marcescens = experiment: Minimal bactericidal concentration (MBC) assay; assay type: cell-based, Serratia marcescens
Experimental: as §1

Klebsiella pneumoniae = experiment: MIC assay; assay type: cell-based
B. multivorans = experiment: Minimal bactericidal concentration (MBC) assay; assay type: cell-based, Burkholderia multivorans
Experimental: as §1

Serratia marcescens = experiment: MIC assay; assay type: cell-based
[1] = tested on: Staphylococcus epidermidis; experiment: MIC assay; assay type: cell-based
Streptococcus pyogenes = experiment: MIC assay; assay type: cell-based
E. coli = experiment: Minimal bactericidal concentration (MBC) assay; assay type: cell-based, Escherichia coli
Experimental: as §1

Escherichia coli = experiment: MIC assay; assay type: cell-based
Staphylococcus aureus = experiment: MIC assay; assay type: cell-based; conditions: for NP101 MIC: Staph aureus isolate NP101; for NP102 MIC: Staph aureus isolate NP102; for NP103 MIC: Staph aureus isolate NP103
Strep. pyogenes = experiment: Minimal bactericidal concentration (MBC) assay; assay type: cell-based, Streptococcus pyogenes
Experimental: as §1

C. freundii = experiment: Minimal bactericidal concentration (MBC) assay; assay type: cell-based, Citrobacter freundii; conditions: C. freundii isolate NP410
Experimental: as §1

Burkholderia multivorans = experiment: MIC assay; assay type: cell-based
Burkholderia dolosa = experiment: MIC assay; assay type: cell-based
Streptococcus pneumoniae = experiment: MIC assay; assay type: cell-based; conditions: solutions in 0.1 M lactate buffer pH 4.0
[2] = formulation type Water/Lecithin
[3] = Staph epidermidis ATCC type strain 12228
[4] = Staph epidermidis isolate NP136
[5] = K. pneumoniae isolate NP403 (first listing)
[6] = K. pneumoniae isolate NP403 (second listing)
[7] = Staph. aureus ATCC type strain 6538
[8] = Staph. aureus ATCC type strain 700699
[9] = Ser. marcescens isolate NP402 (first listing)
[10] = Ser. marcescens isolate NP402 (second listing)
[11] = Ser. marcescens isolate NP408 (first listing)
[12] = Ser. marcescens isolate NP408 (second listing)

## O=[N+]([O-])[O-].[Ag+] [AgNO3, silver nitrate]
B dolosa; B dolosa isolate A3
  MBC: 3 parts silver per million
B dolosa; B dolosa isolate A4
  MBC: 2 parts silver per million
Citrobacter freundii
  MIC: 3 parts silver per million
Pseudomonas aeruginosa; P. aerug (ATCC), solutions in 0.1 M lactate buffer pH 4.0
  MIC: 3 µg/mL
Pseudomonas aeruginosa; P. aerug. (clin.), solutions in 0.1 M lactate buffer pH 4.0
  MIC: 3 µg/mL
Pseudomonas aeruginosa; formulation type Lactate
  NP212 MIC: 2 ppm
  NP213 MIC: 1 ppm
  NP214 MIC: 1 ppm
Pseudomonas aeruginosa; [2]
  NP212 MIC: 3 ppm
  NP213 MIC: 1 ppm
  NP214 MIC: 1 ppm
Pseudomonas aeruginosa; formulation type Water/PVA
  NP212 MIC: 3 ppm
  NP213 MIC: 1 ppm
  NP214 MIC: 3 ppm
Pseudomonas aeruginosa; Ps. aeruginosa ATCC type strain 9027
  MIC: 1 parts silver per million
Pseudomonas aeruginosa; Ps. aeruginosa ATCC type strain 27317
  MIC: 2 parts silver per million
Pseudomonas aeruginosa; Ps. aeruginosa isolate NP201
  MIC: 1 parts silver per million
Pseudomonas aeruginosa; Ps. aeruginosa isolate NP204
  MIC: 1 parts silver per million
Pseudomonas aeruginosa; Ps. aeruginosa isolate NP206
  MIC: 1 parts silver per million
Enterobacter cloacae; aerobic conditions (+)
  MIC: 13 µg/mL
Enterobacter cloacae; anaerobic conditions (Aerobic −)
  MIC: 25 µg/mL
Staph epidermidis; [3]
  MBC: 3 parts silver per million
Staph epidermidis; [4]
  MBC: 3 parts silver per million
Proteus mirabilis
  MIC: 6 parts silver per million
Prot. mirabilis
  MBC: 13 parts silver per million
K. pneumoniae; K. pneumoniae isolate NP401
  MBC: 3 parts silver per million
K. pneumoniae; [5]
  MBC: 6 parts silver per million
K. pneumoniae; [6]
  MBC: 3 parts silver per million
K. pneumoniae; K. pneumoniae isolate NP406
  MBC: 1 parts silver per million
Staph. aureus; [7]
  MBC: 6 parts silver per million
Staph. aureus; [8]
  MBC: 6 parts silver per million
Staph. aureus; Staph. aureus isolate NP101
  MBC: 11 parts silver per million
Staph. aureus; Staph. aureus isolate NP102
  MBC: 6 parts silver per million
Staph. aureus; Staph. aureus isolate NP103
  MBC: 6 parts silver per million
Ser. marcescens; [9]
  MBC: 6 parts silver per million
Ser. marcescens; [10]
  MBC: 6 parts silver per million
Ser. marcescens; [11]
  MBC: 6 parts silver per million
Ser. marcescens; [12]
  MBC: 11 parts silver per million
Klebsiella pneumoniae; K. pneumoniae isolate NP401
  MIC: 3 parts silver per million
Klebsiella pneumoniae; [5]
  MIC: 6 parts silver per million
Klebsiella pneumoniae; [6]
  MIC: 6 parts silver per million
Klebsiella pneumoniae; K. pneumoniae isolate NP406
  MIC: 1 parts silver per million
Klebsiella pneumoniae; Klebsiella pneumoniae, aerobic conditions (+)
  MIC: 3 µg/mL
Klebsiella pneumoniae; Klebsiella pneumoniae, anaerobic conditions (Aerobic −)
  MIC: 3 µg/mL
B. multivorans; B. multivorans isolate B1
  MBC: 3 parts silver per million
B. multivorans; B. multivorans isolate B2
  MBC: 3 parts silver per million
B. multivorans; B. multivorans isolate B4
  MBC: 3 parts silver per million
Serratia marcescens; [9]
  MIC: 6 parts silver per million
Serratia marcescens; [10]
  MIC: 6 parts silver per million
Serratia marcescens; [11]
  MIC: 6 parts silver per million
Serratia marcescens; [12]
  MIC: 11 parts silver per million
Serratia marcescens; Serratia marcescens, aerobic conditions (+)
  MIC: 6 µg/mL
Serratia marcescens; Serratia marcescens, anaerobic conditions (Aerobic −)
  MIC: 13 µg/mL
[1]; S. epiderm (ATCC), solutions in 0.1 M lactate buffer pH 4.0
  MIC: 3 µg/mL
[1]; [3]
  MIC: 3 parts silver per million
[1]; [4]
  MIC: 3 parts silver per million
Streptococcus pyogenes; S. pyog (clin. 303), solutions in 0.1 M lactate buffer pH 4.0
  MIC: 3 µg/mL
Streptococcus pyogenes; S. pyog (clin. 304), solutions in 0.1 M lactate buffer pH 4.0
  MIC: 5 µg/mL
Streptococcus pyogenes; Strep. pyogenes isolate NP303
  MIC: 3 parts silver per million
Streptococcus pyogenes; Strep. pyogenes isolate NP304
  MIC: 6 parts silver per million
Streptococcus pyogenes; Strep. pyogenes isolate NP306
  MIC: 6 parts silver per million
E. coli; E. coli ATCC type strain 8739
  MBC: 0.4 parts silver per million
E. coli; E. coli ATCC type strain 43745
  MBC: 0.4 parts silver per million
E. coli; E. coli isolate NP412
  MBC: 1 parts silver per million
Escherichia coli; E. coli (ATCC), solutions in 0.1 M lactate buffer pH 4.0
  MIC: 3 µg/mL
Escherichia coli; E. coli ATCC type strain 8739
  MIC: 0.4 parts silver per million
Escherichia coli; E. coli ATCC type strain 43745
  MIC: 1 parts silver per million
Escherichia coli; E. coli isolate NP412
  MIC: 1 parts silver per million
Staphylococcus aureus; S. aureus (ATCC), solutions in 0.1 M lactate buffer pH 4.0
  MIC: 11 µg/mL
Staphylococcus aureus; S. aureus (clin.), solutions in 0.1 M lactate buffer pH 4.0
  MIC: 5 µg/mL
Staphylococcus aureus; formulation type Lactate
  NP101 MIC: 9 ppm
  NP102 MIC: 9 ppm
  NP103 MIC: 9 ppm
Staphylococcus aureus; [2]
  NP101 MIC: 11 ppm
  NP102 MIC: 11 ppm
  NP103 MIC: 11 ppm
Staphylococcus aureus; formulation type Water/PVA
  NP101 MIC: 11 ppm
  NP102 MIC: 11 ppm
  NP103 MIC: 11 ppm
Staphylococcus aureus; [7]
  MIC: 6 parts silver per million
Staphylococcus aureus; [8]
  MIC: 3 parts silver per million
Staphylococcus aureus; Staph. aureus isolate NP101
  MIC: 6 parts silver per million
Staphylococcus aureus; Staph. aureus isolate NP102
  MIC: 6 parts silver per million
Staphylococcus aureus; Staph. aureus isolate NP103
  MIC: 6 parts silver per million
Strep. pyogenes; Strep. pyogenes isolate NP303
  MBC: 10 parts silver per million
Strep. pyogenes; Strep. pyogenes isolate NP304
  MBC: 21 parts silver per million
Strep. pyogenes; Strep. pyogenes isolate NP306
  MBC: 21 parts silver per million
C. freundii
  MBC: 3 parts silver per million
Burkholderia multivorans; B. multivorans isolate B1
  MIC: 3 parts silver per million
Burkholderia multivorans; B. multivorans isolate B2
  MIC: 3 parts silver per million
Burkholderia multivorans; B. multivorans isolate B4
  MIC: 2 parts silver per million
Burkholderia dolosa; B dolosa isolate A3
  MIC: 2 parts silver per million
Burkholderia dolosa; B dolosa isolate A4
  MIC: 2 parts silver per million
Streptococcus pneumoniae; S. pneumo (clin 314)
  MIC: 11 µg/mL
Streptococcus pneumoniae; S. pneumo (clin 315)
  MIC: 21 µg/mL
